# Results: US7265139B2, “RXR activating molecules” (Incyte San Diego Inc., priority 2001, dated 2007)
# Assays:
# KKA^y mice = experiment: Antidiabetic activity in type 2 diabetic KKA^y mice; format: in vivo, mouse
# Procedure: Prior to commencing treatment, all of the animals are bled from the tail vein and serum levels of glucose and triglyceride are measured in duplicate. The animals are then sorted into different treatment groups with equal average triglyceride levels. The animals are treated with a single daily oral dose of the test compound suspended in sesame oil (dose volume of 3 ml/kg).
# In short, adult diabetic KKA^y mice are housed in a fixed 12—12-hr artificial light-dark cycle, and maintained on a standard rodent diet. Prior to commencing treatment, all of the animals are bled from the tail vein and serum levels of glucose and triglyceride are measured in duplicate. The animals are then sorted into different treatment groups with equal average triglyceride levels. The animals are treated with a single daily oral dose ranging from 3-30 mg/kg of the test compound suspended in sesame oil (dose volume of 3-5 ml/kg). Following one week of treatment the animals are bled from the tail vein and Serum glucose and triglycerides are measured in duplicate.
# In this example, compound 1, which belongs to the novel subclass of RXR ligands is compared to a typical RXR ligand like compound 2 in the treatment of KKA^y mice.
# For this study, adult diabetic KKA^y mice were housed in a fixed 12—12-hr artificial light-dark cycle, and maintained on a standard rodent diet. Prior to commencing treatment, all of the animals are bled from the tail vein and serum levels of glucose and triglyceride are measured in duplicate. The animals are then sorted into different treatment groups with equal average triglyceride levels. The animals are treated with a single daily oral dose of the test compound suspended in sesame oil (dose volume of 3 ml/kg).
# [1] = test system: Mouse 3T3-L1 preadipocytes; experiment: 3T3-L1 adipocyte differentiation assay; format: cell-based; details: 0.1 μM compared to Compound 1 at equal concentration; pre-adipocytes to adipocytes
# Procedure: Mouse 3T3-L1 cells were grown in 96-well tissue culture plates containing growing medium (DME containing 10% calf serum (CS) plus glutamine-pen-strep) at a density of 3,000 cells/well. Two days after reaching confluence, cells are treated with the different compounds in DM (Day 0). Compound 1 is included in all the experiments, and its ability to differentiate 3T3-L1 cells at 0.1 μM is taken as reference for 100% differentiation. After 7 days the lipid content of the cells was determined.
# Prior to testing compounds in vivo, they can be run through the in vitro adipocyte differentiation assay based on the protocol of Zhang, et al. (1996) Negative Regulation of Peroxisome Proliferator—Activated Receptor—γGene Expression Contributes to the Antiadipogenic effects of Tumor Necrosis Factor—α. Mol. Endo. 10:1457-1456, incorporated herein by reference. In short, mouse 3T3-L1 preadipocytes are grown in culture medium containing 10% calf serum supplemented with antibiotics. Two days after reaching confluence, cells are treated with the selected compound at different concentrations dissolved in medium containing 10% fetal calf serum supplemented with antibiotics and kept at 10% CO2. The test compounds are replaced every 2-3 days. Differentiation is assessed after 7 days of treatment by the lipid content in the cells, using the Triglyceride (INFINITY) reagent (Sigma Chemical, St. Louis, Mo.).
# The ability of a compound to induce preadipocytes to differentiate into adipocytes is an indicator of its antidiabetic activity. This allows for screening many compounds in a simple in vitro assay, thus avoiding the task of testing all compounds in vivo. The adipocyte differentiation assay is based on the protocol of Zhang, et al. (1996) Negative Regulation of Peroxisome Proliferator-Activated Receptor-γ Gene Expression Contributes to the Antiadipogenic effects of Tumor Necrosis Factor—α. Mol. Endo. 10:1457-1456, incorporated herein by reference at least for material related to adipocyte differentiation assays. Mouse 3T3-L1 preadipocytes are grown in culture medium containing 10% calf serum supplemented with antibiotics. Two days after reaching confluence, cells are treated with the selected compound at different concentrations dissolved in medium containing 10% fetal calf serum supplemented with antibiotics and kept at 10% CO2. The test compounds are replaced every 2-3 days. Differentiation is assessed after 7 days of treatment by the lipid content in the cells, using the Triglyceride (INFINITY) reagent (Sigma Chemical, St. Louis, Mo.) (see FIG. 15).
# [2] = following one and two weeks of treatment
smiles,measurement,setting,value
Cc1cc2c(cc1-c1cc(C=C3SC(=O)NC3=O)ccc1OC(F)(F)F)C(C)(C)CCC2(C)C [Compound 1],serum glucose levels compared to vehicle treated control mice,"KKA^y mice; 5 mg/kg, single daily oral dose in sesame oil, FIG. 10, p≦0.01",significant decrease
same,serum triglyceride levels compared to vehicle treated control mice,"KKA^y mice; 5 mg/kg, single daily oral dose, FIG. 11, p≦0.05",significant decrease
same,Efficacious in KKAy Mice,KKA^y mice; efficacious = lowers glucose without increasing triglycerides,Yes
same,glucose levels compared to vehicle treated control mice,KKA^y mice; [2],statistically significant decrease
same,triglyceride levels compared to vehicle treated control mice,KKA^y mice; [2],statistically significant decrease
same,Differentiation Activity,[1],100%
